Experimental findings from patent US9029574B2, “Bicyclic compound and use thereof for medical purposes” (Ono Pharmaceutical Co., Ltd., priority 2011, dated 2015) are described below.

Type in all cases: in vivo
The subject of one data set is male dog (TOYO Beagle). Put plainly: Intraocular pressure lowering action in dog after ocular instillation. The conditions noted are these: for Maximum of intraocular pressure lowering rate (%): ocular instillation 30 μL, maximum among 2, 4, 6, 8 and 24 hours; for intraocular pressure lowering action as compared with latanoprost: ocular instillation, in words. The procedure:
As can be easily understood by a person skilled in the art, in an in vivo test, since regarding all test compounds, carboxylic acid which is an active body has bad corneal permeability, pharmacological action of the active body was assessed by ocular instillation administration of a compound which had been converted into an ester such as a methyl ester, an ethyl ester, an isopropyl ester etc. In addition, in a group of the compound of the present inventions, by ocular instillation administration of the ester body in an experimental animal (rabbit, dog etc.) by which pharmacological action is confirmed below and, thereafter, measurement of a drug concentration of carboxylic acid in an aqueous humor, it was confirmed that the ester is rapidly converted into corresponding carboxylic acid.
(2-1) Intraocular Pressure Lowering Action
To one eye of a male dog (TOYO Beagle) which had been sufficiently acclimated in advance, 30 μL of each test compound (the compound of Example 16 (35), the compound of Example 16 (3) and the compound of Example 16 (25)) which had been adjusted with a base (containing citrate buffer pH 6.5, 0.5% polysorbate 80, 1% propylene glycol, […]), was ocular-instilled respectively. The other eye was not treated. As a positive control compound, latanoprost which is the known compound was used.
Thereafter, an ocular surface anesthetic (Benoxil eye drops 0.4%, Santen Pharmaceutical Co., Ltd.) was subjected to ocular instillation to locally anesthetize eyes, and an intraocular pressure of each test compound before ocular instillation and after 2, 4, 6, 8, and 24 hours from ocular instillation was measured. An intraocular pressure was measured using a pneumatic applanation flat tonometer (Model 30 Classic, REICHERT). An intraocular pressure lowering rate (%) was calculated by the following equation.

Data set [1] deals with male rabbit (NewZealandWhite). The experiment in a line: Aqueous humor protein concentration in rabbit after ocular instillation. The conditions noted are these: ocular instillation 30 μL of 0.1% (w/v), aqueous humor collected 0 to 8 hours. The procedure: (2-2) Assessment of Ocular Stimulating Property and Aqueous Humor Protein Concentration
To one eye of a male rabbit (NewZealandWhite, 2.0 to 3.0 kg), 30 μL of the compound of Example 16 (35), the compound of Example 16 (3) and the compound of Example 16 (25) which had been adjusted to 0.1% (w/v) with a base (containing citrate buffer pH 6.5, 0.5% polysorbate 80, 1% propylene glycol, 0.01% benzalkonium chloride), was ocular-instilled respectively. Thereafter, an aqueous humor in anterior chamber after 0, 1, 2, 4, 6 and 8 hours from ocular instillation was collected, and a protein concentration in the humor was measured. As a comparative compound, the aforementioned methyl ester of the compound of Example 12 described in Patent Literature 2 (i.e. compound of Example 10 described in Patent Literature 2) (hereinafter, abbreviated as Comparative Compound B in some cases) was used.
Regarding any test compound, a dose until a dissolution limit (150 to 1000 μg/mL) was administered and action of each active body was assessed.

The subject of data set [2] is male monkey (crab-eating monkey). Put plainly: Intraocular pressure lowering action in monkey under consciousness. The conditions noted are these: ocular instillation 30 μL, 10 μg/mL; for Maximum intraocular pressure lowering rate (%): maximum up to 24 hours. As for the experimental part:
(2-3) Intraocular Pressure Lowering Action in Monkey Under Consciousness
To a left eye of a male monkey (crab-eating monkey) under consciousness, 30 μL of a solution obtained by adjusting a test substance with using the same base as that described above was ocular instillation-administered and, to a right eye, 30 μL of a solution of only a base as a control was ocular instillation-administered, respectively. An intraocular pressure after administration was measured with time from administration initiation until 24 hours. In case of measurement of an intraocular pressure, a crab-eating monkey was fixed on a monkey chair, and the monkey was anesthetized by ocular instillation-administering an ocular surface anesthetic (Benoxil eye drops 0.4% Santen Pharmaceutical Co., Ltd.). After mounting of a blepharostat (Handaya Co., Ltd.), an intraocular pressure of both eyes was measured (5 to 8 examples per group) with using a pneumatic applanation flat tonometer (Model 30 Classic, REICHERT). A difference in an intraocular pressure value between control eyes and eyes to which a test substance had been administered, was calculated as an intraocular pressure lowering rate with using the following equation, and sustainability of intraocular eye lowering action was assessed using a maximum intraocular pressure lowering rate during measurement and an intraocular pressure lowering rate after 24 hours. As the test substance, the Comparative Compound B, and the compounds of Example 16 (3), Example 16 (25) and Example 16 (35) were used, and an administration dose was 10 μg/mL in all cases.

Regarding `CC(C)OC(=O)CCC[C@H]1CC[C@@H]2[C@@H](/C=C/[C@@H](O)COc3cccc(Cl)c3)[C@H](O)C[C@@H]2OC1` [Example 16 (3), 2-Propanyl 4-{(3S,5aR,6R,7R,8aS)-6-[(1E,3R)-4-(3-chlorophenoxy)-3-hydroxy-1-buten-1-yl]-7-hydroxyoctahydro-2H-cyclopenta[b]oxepin-3-yl}butanoate], the “Maximum of intraocular pressure lowering rate (%)” value in the data set with male dog (TOYO Beagle) (administration dose 10 μg/mL) came out at 35.7%. The “intraocular pressure lowering action as compared with latanoprost” value in the data set with male dog (TOYO Beagle) is “stronger intraocular pressure lowering action”. In data set [1], the “action of raising a protein concentration in an aqueous humor” value is recorded as “no action of raising a protein concentration in an aqueous humor”. Besides, in data set [2], the “Intraocular pressure lowering rate (%) after 24 hours” value is reported as 15.1 ± 2.0% and the “Maximum intraocular pressure lowering rate (%)” value stood at 28.8 ± 2.2%.
For the compound `CC(C)OC(=O)CCC/C=C\C[C@@H]1[C@@H](CC[C@@H](O)CCc2ccccc2)[C@H](O)C[C@@H]1O` [Latanoprost, latanoprost, reference compound], the “Maximum of intraocular pressure lowering rate (%)” value in the data set on male dog (TOYO Beagle) (administration dose 50 μg/mL) came to 25.4%.
As for `CCOC(=O)CCC[C@H]1CC[C@@H]2[C@@H](/C=C/[C@@H](O)COc3ccccc3)[C@H](O)C[C@@H]2OC1` [Example 16 (35), Ethyl 4-{(3S,5aR,6R,7R,8aS)-7-hydroxy-6-[(1E,3R)-3-hydroxy-4-phenoxy-1-buten-1-yl]octahydro-2H-cyclopenta[b]oxepin-3-yl}butanoate], the “Maximum of intraocular pressure lowering rate (%)” value with male dog (TOYO Beagle) (administration dose 10 μg/mL) is given as 31%. For the same compound, the “intraocular pressure lowering action as compared with latanoprost” value in the data set with male dog (TOYO Beagle) was “stronger intraocular pressure lowering action”. Also, the “action of raising a protein concentration in an aqueous humor” value in data set [1] is reported as “no action of raising a protein concentration in an aqueous humor”. In data set [2], the “Intraocular pressure lowering rate (%) after 24 hours” value came out at 14.9 ± 4.7% and the “Maximum intraocular pressure lowering rate (%)” value stood at 19.2 ± 2.6%.
Taken in the same sequence, the figures for `CC(C)OC(=O)CCC[C@H]1CC[C@@H]2[C@@H](/C=C/[C@@H](O)COc3cc(F)ccc3F)[C@H](O)C[C@@H]2OC1` [Example 16 (25), 2-Propanyl 4-{(3S,5aR,6R,7R,8aS)-6-[(1E,3R)-4-(2,5-difluorophenoxy)-3-hydroxy-1-buten-1-yl]-7-hydroxyoctahydro-2H-cyclopenta[b]oxepin-3-yl}butanoate] were 40.6%, “stronger intraocular pressure lowering action”, “no action of raising a protein concentration in an aqueous humor”, 17.5 ± 2.1% and 26.5 ± 1.7%.
